Laboratory results from publication PMC11714206, “Massively Parallel Screening of Toll/Interleukin‐1 Receptor (TIR)‐Derived Peptides Reveals Multiple Toll‐Like Receptors (TLRs)‐Targeting Immunomodulatory Peptides” (Advanced Science, 2024).
Values belong to the compound of their own block, whether it stands above or below them. Where no end group is shown, it is not given here.

Assays:
[1] = target: T1, MAL^TIR (Homo sapiens, UniProt P58753); assay: T‐Surf phage library (P8 and P3) selection against MAL^TIR, four rounds, NGS read counts; format: binding; settings: for P3_MAL Rank (after) / P3_MAL Rank (before): P3 library; for Population: P3_MAL pool: P3 T-Surf phage library, 4th round of selection against MAL TIR, share of NGS reads
T1 construct: MAL (residues 79–221); 6xHis; made in house; host or cells: E. coli BL21 (DE3)
T1 sequence (P58753 79-221): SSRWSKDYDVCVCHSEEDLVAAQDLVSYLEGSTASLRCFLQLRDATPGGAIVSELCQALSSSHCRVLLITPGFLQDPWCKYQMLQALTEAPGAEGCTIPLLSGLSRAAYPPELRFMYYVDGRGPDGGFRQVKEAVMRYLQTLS
Method in brief: (§1)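 Read counts come from NGS of phage pools enriched over four selection rounds on the plate‐coated TIR domain (5 µg mL^−1). Each round: 1 h phage binding at room temperature after 0.2% BSA blocking, Tween washes, acid elution, amplification in E. coli TG1 with M13KO7 helper.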

[2] = target: T2, MyD88^TIR (Homo sapiens, UniProt Q99836); assay: T‐Surf phage library (P8 and P3) selection against MyD88^TIR, four rounds, NGS read counts; format: binding; settings: for Population: P3_MyD88 pool: P3 T-Surf phage library, 4th round of selection against MyD88 TIR, share of NGS reads; for P3_MyD88 Rank (after) / P3_MyD88 Rank (before): P3 library
T2 construct: MyD88 (residues 148–296); 6xHis; made in house; host or cells: E. coli BL21 (DE3)
T2 sequence (Q99836 148-296): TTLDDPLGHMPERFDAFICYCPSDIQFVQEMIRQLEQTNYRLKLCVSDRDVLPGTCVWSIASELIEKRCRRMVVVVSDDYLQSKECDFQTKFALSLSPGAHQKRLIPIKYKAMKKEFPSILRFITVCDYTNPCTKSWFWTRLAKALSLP
Method in brief: as §1

[3] = target: T3, TIR domain of MyD88 (Homo sapiens, UniProt Q99836); assay: Fluorescence polarization (FP) assay, MyD88 TIR; format: binding; settings: Cy5‐labeled TDIP1 50 nM, TIR domain diluted 1:1 from 40 µM, 30 min RT, ± SD, n = 3, read-out: apparent Kd against MyD88
T3 construct: MyD88 (residues 148–296); 6xHis; made in house; host or cells: E. coli BL21 (DE3)
T3 sequence (Q99836 148-296): as above
Description: (§2) Figure 6 Molecular characterization of TDIPs. (a) Co‐immunoprecipitation of TIR domains and TDIPs. Lysates of HEK293T cells expressing FLAG‐tagged TIR domains were incubated with the indicated TDIPs. Peptides were blotted with an antibody against the penetratin sequence. Created with BioRender.com. (b) Fluorescence polarization binding assay of the Cy5‐labeled TDIP1 against TIR domains of Myd88, TRAM, and MAL. Error bars represent ± SD (n = 3). (c) Human serum stability (half‐life) of the TDIPs was measured. The percentage of the remaining peptide was quantified up to 72 h. (d) The secondary structure of the selected TDIPs was determined by circular dichroism. […] (e) TDIP1 and its truncates were compared for inhibition of TLR4 signaling by using HEK‐Blue^TM hTLR4 cells. Data are presented as mean ± SD. ^****p < 0.0001. All significance is versus the LPS‐treated CP group. n.s., not significant.
(§3) Fluorescence polarization assays were carried out using a 384‐well black non‐binding microplate (Corning, CLS4514). TDIP1 peptide was synthesized by ANYGEN with N‐terminal Cy5 at >95% purity. The lyophilized peptide was reconstituted in ultrapure water (Invitrogen) to a concentration of 1 mM. The peptide was diluted with 10× PBS to make a final solution of 100 nM. […] After mixing the samples, the plate was incubated for 30 min at RT and read using an Infinite M1000 (Tecan, Mannedorf, Switzerland).

[4] = Serum stability analysis; format: in vitro ADME; settings: human serum (Sigma H4522), 1 mM peptide in water mixed 1:1 (v/v) with serum, 37 °C, 48 h; SDS‐PAGE, Coomassie band intensity (ImageJ)
Description: as §2
The first step of the serum stability analysis was performed as previously described^[ [60] ^] with a minor modification. Human serum (Sigma‐Aldrich, H4522) was thawed on ice and centrifuged at 18 000 × g for 10 min at 4 °C to remove lipids. The supernatant was incubated at 37 °C for 15 min to activate the proteins. Each peptide was prepared at a concentration of 1 mM in ultrapure water and mixed with human serum in a 1:1 (v/v) ratio. The mixed solutions were incubated at 37 °C for various periods (0, 1, 3, 6, 12, 24, 48, and 72 h). A mixture of ultrapure water and human serum was used as the blank. A total of 3 µg of the peptide was loaded on an SDS–polyacrylamide gel and stained with InstantBlue Coomassie Protein Stain (Abcam). The intensity of the remaining peptide bands was quantified using ImageJ and plotted.

[5] = target: T4, TIR domain of MAL (Homo sapiens, UniProt P58753); assay: Fluorescence polarization (FP) assay, MAL TIR; format: binding; settings: Cy5‐labeled TDIP1 50 nM, TIR domain diluted 1:1 from 40 µM, 30 min RT, ± SD, n = 3, read-out: apparent Kd against MAL
T4 construct: MAL (residues 79–221); 6xHis; made in house; host or cells: E. coli BL21 (DE3)
T4 sequence (P58753 79-221): as the sequence (P58753 79-221) above
Description: as §2, §3

[6] = target: T5, TIR domain of TRAM (Homo sapiens, UniProt Q86XR7); assay: Fluorescence polarization (FP) assay, TRAM TIR; format: binding; settings: Cy5‐labeled TDIP1 50 nM, TIR domain diluted 1:1 from 40 µM, 30 min RT, ± SD, n = 3, read-out: apparent Kd against TRAM
T5 construct: purified TIR domains of MyD88, TRAM, and MAL
T5 sequence (Q86XR7 73-229 limits assumed): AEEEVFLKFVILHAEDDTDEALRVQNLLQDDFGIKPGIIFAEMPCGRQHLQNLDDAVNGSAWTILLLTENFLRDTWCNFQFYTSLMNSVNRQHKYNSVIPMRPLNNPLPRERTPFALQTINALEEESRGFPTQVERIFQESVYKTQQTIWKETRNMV
Description: as §2, §3

[7] = test system: polymicrobial sepsis model; design: method as in PMID 18305095; settings: administration 3 h before or 6 h after CLP surgery; cited from earlier work
Source text: Treatment of macrophage cells with synthetic TDIPs containing a cell‐penetrating moiety suppressed TLR4‐dependent inflammatory pathways in a dose‐dependent manner. Moreover, the selected TDIPs exerted broad‐spectrum TLR‐inhibitory effects by inhibiting interactions between TIR domain‐containing proteins, which enhanced the therapeutic efficacy in the murine sepsis model. Although we applied TDIP simultaneously with LPS, the timing of TLR inhibitor administration remains a critical consideration. ...

[8] = P3_MAL: rank by count after grouping
[9] = P3_MAL: rank by count before grouping
[10] = selection against MAL, rank after grouping
[11] = selection against MAL, rank before grouping
[12] = selection against MyD88, rank after grouping
[13] = selection against MyD88, rank before grouping
[14] = P3_MyD88: rank by count after grouping
[15] = P3_MyD88: rank by count before grouping
[16] = 4R selection against MyD88, rank after grouping
[17] = 4R selection against MyD88, rank before grouping

Compound: LNGAIRIFGANCVMR
- P3_MAL Rank (after) [1, 10]: 534
- P3_MAL Rank (before) [1, 11]: 2194
- P3_MyD88 Rank (after) [2, 12]: 494
- P3_MyD88 Rank (before) [2, 13]: 2400

Compound: RQIKIWFQNRRMKWKKWFYERLVSLILRDTKV [TDIP1]
- Kd [3]: 2.8 ± 0.46 µM
- remaining peptide after 48 h of incubation in human serum [4]: up to 50%
- Kd [5]: 4.49 ± 0.72 µM
- Kd [6]: 1.46 ± 0.11 µM

Compound: SSFREGLWRLLELSKLRYAM
- P3_MAL Rank (after) [1, 10]: 558
- P3_MAL Rank (before) [1, 11]: 3151
- P3_MyD88 Rank (after) [2, 12]: 517
- P3_MyD88 Rank (before) [2, 13]: 3173

Compound: LKVESWRQALEKRAN
- Rank (after) [1, 8]: 122
- Rank (before) [1, 9]: 331
- Rank (after) [2, 14]: 99
- Rank (before) [2, 15]: 383

Compound: NQWRNALTAAANLNGW
- Population [1]: 0.00564%
- Population [2]: 0.00408%

Compound: LKVESCVRRWKKRAN
- P3_MAL Rank (after) ([1]; selection against MAL TIR, rank by count after grouping): 213
- P3_MAL Rank (before) ([1]; selection against MAL TIR, rank by count before grouping): 2293
- P3_MyD88 Rank (after) [2, 16]: 592
- P3_MyD88 Rank (before) [2, 17]: 2519

Compound: ARLPAICIVIWCSVA
- Rank (after) [1, 8]: 106
- Rank (before) [1, 9]: 170
- Rank (after) [2, 14]: 140
- Rank (before) [2, 15]: 935

Compound: SSFREGPWRLLELSKK
- Population [1]: 0.00338%
- Population [2]: 0.00466%

Compound: CCN(CC)CCCC(C)Nc1ccnc2cc(Cl)ccc12 (stereo not shown) [chloroquine]
- survival in polymicrobial sepsis model [7]: markedly improved survival

Now from value to compound:

- Rank (after) ([1]; P8_MAL: rank by count after grouping): 107
- Rank (before) ([1]; P8_MAL: rank by count before grouping): 654
- Rank (after) ([2]; P8_MyD88: rank by NGS read count after grouping): 907
- Rank (before) ([2]; P8_MyD88: rank by NGS read count before grouping): 3395
Compound: RGFLSHLRHHLQAKDH

- Rank (after) [1, 8]: 142
- Rank (before) [1, 9]: 847
- Population [2]: 0.0032%
Compound: LKVESWRDALTKVASL

- Rank (after) [1, 8]: 130
- Rank (before) [1, 9]: 1958
- Rank (after) [2, 14]: 391
- Rank (before) [2, 15]: 2068
Compound: DIQRSRFKDDADLVGQ

- P3_MAL Rank (after) ([1]; 4R selection against MAL, rank after grouping): 638
- P3_MAL Rank (before) ([1]; 4R selection against MAL, rank before grouping): 3421
- P3_MyD88 Rank (after) [2, 16]: 579
- P3_MyD88 Rank (before) [2, 17]: 3536
Compound: NQWKLALTKVANLV

- Rank (after) [1, 8]: 413
- Rank (before) [1, 9]: 1402
- P3_MyD88 Rank (after) ([2]; selection against MyD88 TIR, rank by count after grouping): 196
- P3_MyD88 Rank (before) ([2]; selection against MyD88 TIR, rank by count before grouping): 1511
Compound: YAFTGHLHRYLVQREPAGN

- P3_MAL Rank (after) ([1]; selection against MAL, rank by count after grouping): 751
- P3_MAL Rank (before) ([1]; selection against MAL, rank by count before grouping): 1535
- P3_MyD88 Rank (after) ([2]; selection against MyD88, rank by count after grouping): 682
- P3_MyD88 Rank (before) ([2]; selection against MyD88, rank by count before grouping): 1622
Compound: YTLLAICMMRCIVIV
